# Experimental data: PMC5095173, “Disulfide-activated protein kinase G Iα regulates cardiac diastolic relaxation and fine-tunes the Frank–Starling response” (Nature Communications, 2016)
# Tests used:
# [1] = test system: PKGIα (analogue-sensitive C42S/M438G), cGMP-activated; test: Chemical genetic phosphoproteomic screen, cGMP-activated PKGIα C42S/M438G versus unactivated control; assay type: biochemical, human PKGIα; substrates in rat heart homogenate; settings: cGMP activation; of 29 substrates with significant change
# From the text: We employed a chemical genetic method[18] to identify direct substrates of cGMP-activated PKGIα and disulfide bond-activated PKGIα in heart tissue. This method involves mutation of the ATP binding-site of the kinase of interest so that it can accept a ‘bulky' N6-alkylated ATP analogue for example, N6^−phenylethyl ATP. An oxygen atom on the γ phosphate is also replaced with a sulfur atom—giving an N6-alkylated ATPγS analogue—so that the mutant kinase catalyses the transfer of a thiophosphate group (–PO3S^3−) to its substrates instead of a phosphate. The thiophosphate group is nucleophilic, providing a basis for substrates of the analogue-sensitive kinase to be purified by a ‘covalent capture' protocol. LC–MS/MS allows identification of the substrate and localization of the phosphorylation site. Thiophosphorylated proteins can also be detected with a thiophosphate ester-specific antibody. Analogue-sensitive mutants of PKGIα and PKGIα C42S (which cannot form the activating intermolecular disulfide bond) were generated by mutating Met438 in the ATP-binding domain to Gly. This mutation was chosen based on a previous study where an analogue-sensitive mutant of the catalytic subunit of PKA—which shares sequence homology with PKGIα—was engineered. Detailed protocols are given below.
# A pCDNA3 expression vector encoding human FLAG-tagged PKGIα (ref. [41]) underwent site-directed mutagenesis to generate constructs for untagged WT, C42S, M438G and C42S/M438G PKGIα. Mutations were introduced using the QuikChange II Site-Directed Mutagenesis Kit (Agilent) according to the manufacturer's instructions. Expression and purification of the PKGIα mutants was performed according to a published method[42] as follows: suspension FreeStyle 293-F cells (ThermoFisher Scientific) were transfected with the appropriate PKGIα construct using the stable cationic polymer polyethyleneimine (PEI) as a transfection reagent. After ∼72 h cells were harvested by centrifugation (400g; room temperature; 15 min), re-suspended in ice cold lysis buffer (25 mM sodium phosphate buffer pH 6.8; 10 mM ethylenediaminetetraacetic acid (EDTA); 100 mM NaCl; 10 mM benzamidine hydrochloride; and 10 mM dithiothreitol (DTT)) and frozen in liquid N2. Cells were lysed by three freeze (liquid N2)-thaw (37 °C) cycles and the lysate was clarified by centrifugation at 140,000g and 4 °C for 30 min. The soluble protein fraction was loaded onto a pre-equilibrated 8-(2-aminoethylamino)adenosine-3′, 5′-cyclic monophosphate column (8-AEA-cAMP agarose; BioLog, Germany) followed by washing with 20 column volumes of lysis buffer. The column was further washed with lysis buffer +3 M NaCl (5 column volumes) and PKGIα was then eluted with lysis buffer +150 mM NaCl and 500 μM cAMP. Removal of cAMP and buffer exchange was achieved by extensive dialysis against 25 mM sodium phosphate buffer pH 6.8, 2 mM EDTA and 100 mM NaCl. For ITC analysis, WT PKGIα was incubated with 10 mM lipoic acid for 2 h on ice to obtain ∼100% disulfide dimer (confirmed by SDS-PAGE). Oxidized WT or C42S PKGIα was further purified by size exclusion chromatography using a HiLoad 16/600 Superdex 200 pg column (GE Healthcare) with 50 mM sodium phosphate buffer pH 7.4 and 100 mM NaCl. Proteins were concentrated using Amicon Ultra centrifugal filter devices (Merck Millipore). DTT was absent in storage buffers so that the activating disulfide bond would not be reduced and so that the PKGIα M438G mutant would be oxidized to disulfide dimer in the presence of air (confirmed by SDS-PAGE). Protein concentration was determined by Pierce BCA assay (ThermoFisher) and enzyme activity was confirmed using the Omnia kinase assay kit (ThermoFisher).
# Male Wistar rats (9–10 weeks; body weight 300–330 g) were euthanized by intraperitoneal injection of sodium pentobarbitone (200 mg kg^−1) with heparin (500 USP units). […]
# [2] = test system: PKGIα Cys42 disulfide bond; settings: ref [3], [4]; cited from earlier work
# WT PKGIα = test: Oxidation of recombinant WT PKGIα to disulfide dimer (SDS-PAGE); assay type: biochemical, human; settings: 10 mM lipoic acid, 2 h on ice; confirmed by SDS-PAGE
# Procedure: A pCDNA3 expression vector encoding human FLAG-tagged PKGIα (ref. [41]) underwent site-directed mutagenesis to generate constructs for untagged WT, C42S, M438G and C42S/M438G PKGIα. Mutations were introduced using the QuikChange II Site-Directed Mutagenesis Kit (Agilent) according to the manufacturer's instructions. Expression and purification of the PKGIα mutants was performed according to a published method[42] as follows: suspension FreeStyle 293-F cells (ThermoFisher Scientific) were transfected with the appropriate PKGIα construct using the stable cationic polymer polyethyleneimine (PEI) as a transfection reagent. After ∼72 h cells were harvested by centrifugation (400g; room temperature; 15 min), re-suspended in ice cold lysis buffer (25 mM sodium phosphate buffer pH 6.8; 10 mM ethylenediaminetetraacetic acid (EDTA); 100 mM NaCl; 10 mM benzamidine hydrochloride; and 10 mM dithiothreitol (DTT)) and frozen in liquid N2. Cells were lysed by three freeze (liquid N2)-thaw (37 °C) cycles and the lysate was clarified by centrifugation at 140,000g and 4 °C for 30 min. […] Protein concentration was determined by Pierce BCA assay (ThermoFisher) and enzyme activity was confirmed using the Omnia kinase assay kit (ThermoFisher).
# another kinase = settings: ref www.nature.com/ncomms/2015/150810/ncomms8920; cited from earlier work
# From the text: page 15: reasons explained, are complicated to interpret and they are not anticipated to be as effective as many would envisage. […] Now high profile preclinical studies show ...
# [3] = 37 °C; value taken for Ca2+ calibration, no reference given; read-out: Kd of Fluo-3; cited from earlier work
# Procedure: To measure cytosolic Ca^2+ levels, cells were loaded with the acetoxymethyl (AM) ester form Fluo-3 (Molecular Probes) and excited continuously at 488 nm. Emitted fluorescence was measured with a 515 nm long-pass filter. Raw fluorescent signals were calibrated off-line as per equation (1). […] Background fluorescence was subtracted from all raw signals. Custom-written Excel routines were used to measure Ca^2+ transient amplitude, diastolic Ca^2+ levels, rate of decay of the Ca^2+ transient and SR Ca^2+ content. SR Ca^2+ content was estimated fr ...
smiles,measurement,setting,value
"Nc1nc2c(ncn2[C@@H]2O[C@@H]3COP(=O)(O)O[C@H]3[C@H]2O)c(=O)[nH]1 [cGMP, cyclic guanosine monophosphate, reference compound]",number of proteins with significantly increased phosphorylation when PKGIα was activated,[1],28
same,effect on formation of the Cys42 intermolecular disulfide bond,[2],inhibits formation of the Cys42 intermolecular disulfide bond
O=C(O)CCCC[C@@H]1CCSS1 (racemic) [lipoic acid],disulfide dimer formed,WT PKGIα,~100%
"CC(=O)N[C@@H](CS)C(=O)O [NAC, N-acetylcysteine]",effect on oxidation of another kinase,another kinase,promoted the oxidation of that target
Cc1ccc(N(CC(=O)O)CC(=O)O)c(OCCOc2cc(-c3c4cc(Cl)c(=O)cc-4oc4cc(O)c(Cl)cc34)ccc2N(CC(=O)O)CC(=O)O)c1 [Fluo-3],Kd,[3],864 nM
